Assay results from patent US11566007B2, “Ras inhibitors” (Revolution Medicines, Inc., priority 2019, dated 2023).

Columns and labels:
[1] = target: KRAS G12S (Homo sapiens (Human), UniProt P01116+P62937, G12S); test: Ras-Raf (BRAF RBD) disruption / FRET / MOA assay, KRAS G12S; format: biochemical; settings: Ras-Raf disruption/FRET/MOA assay; class symbols; read-out: KRAS G12S FRET data IC50
Outline: (§1)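 Ras:RAF disruption was scored as a fall in TR-FRET ratio relative to DMSO. Compound ranged in 3-fold steps over 10 points from 30 μM final; incubation ran 3 h at 25° C, detection antibodies a further 1.5 h. Reported as IC50.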

[2] = test system: NCI-H358 (K-Ras G12C); test: CellTiter-Glo cell viability assay, NCI-H358; format: cell-based, human; settings: NCI-H358, 5-day treatment; class symbols; read-out: Additional H358 Cell Viability assay data (K-Ras G12C, IC50)
Outline: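 Viability of K-Ras mutant lines is measured by ATP luminescence after five days of compound treatment. Percent of DMSO control is calculated and dose-response data are fitted with a four-parameter logistic equation.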

[3] = target: KRAS G12D (Homo sapiens (Human), UniProt P01116+P62937, G12D); test: Ras-Raf (BRAF RBD) disruption / FRET / MOA assay, KRAS G12D; format: biochemical; settings: Ras-Raf disruption/FRET/MOA assay; class symbols; read-out: KRAS G12D FRET data IC50
KRAS G12D, sequence (P01116-2 other isoform, or with tags, fused parts or gaps G12D): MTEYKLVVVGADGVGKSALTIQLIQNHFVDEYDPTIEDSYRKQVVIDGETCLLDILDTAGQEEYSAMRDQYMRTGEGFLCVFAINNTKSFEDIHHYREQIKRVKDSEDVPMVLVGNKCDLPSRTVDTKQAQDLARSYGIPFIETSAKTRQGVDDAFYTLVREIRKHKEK
KRAS G12D, sequence (P62937 whole entry): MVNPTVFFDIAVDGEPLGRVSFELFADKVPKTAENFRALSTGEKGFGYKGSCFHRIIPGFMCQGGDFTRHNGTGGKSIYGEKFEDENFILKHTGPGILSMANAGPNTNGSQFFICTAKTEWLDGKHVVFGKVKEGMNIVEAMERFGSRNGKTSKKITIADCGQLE
Outline: as §1

[4] = test system: NCI-H358 cells (K-Ras G12C); test: Potency assay: pERK in NCI-H358 cells; format: cell-based, human; settings: H358 KRAS G12C; read-out: pERK EC50
Outline: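 4 h cpd, 37 °C; 10-pt 3-fold series, 10 mM DMSO top stock, duplicates. Readout pERK: AlphaLISA SureFire Ultra or In-Cell Western (IR-800CW secondary, DRAQ5 DNA stain). IC50, 4-PL fit vs log conc.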

[5] = target: KRAS Q61H (Homo sapiens (Human), UniProt P01116+P62937, Q61H); test: Ras-Raf (BRAF RBD) disruption / FRET / MOA assay, KRAS Q61H; format: biochemical; settings: Ras-Raf disruption/FRET/MOA assay; class symbols; read-out: KRAS Q61H FRET data IC50
KRAS Q61H, sequence (P01116-2 other isoform, or with tags, fused parts or gaps Q61H): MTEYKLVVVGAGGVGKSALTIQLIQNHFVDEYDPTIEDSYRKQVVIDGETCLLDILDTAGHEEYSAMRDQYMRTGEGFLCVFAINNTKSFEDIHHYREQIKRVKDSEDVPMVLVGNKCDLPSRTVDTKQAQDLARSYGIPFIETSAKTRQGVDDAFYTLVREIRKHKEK
KRAS Q61H, sequence (P62937 whole entry, canonical isoform): as the sequence (P62937 whole entry) above
Method: (§2) The purpose of this biochemical assay is to measure the ability of test compounds to facilitate ternary complex formation between a nucleotide-loaded Ras isoform and cyclophilin A; the resulting ternary complex disrupts binding to a BRAF^RBD construct, inhibiting Ras signaling through a RAF effector.
(§3) […]. Compound is present in plate wells as a 10-point 3-fold dilution series starting at a final concentration of 30 μM. After incubation at 25° C. for 3 hours, a mixture of Anti-His Eu-W1024 and anti-GST allophycocyanin is then added to assay sample wells at final concentrations of 10 nM and 50 nM, respectively, and the reaction incubated for an additional 1.5 hours. […] Compounds that facilitate disruption of a Ras:RAF complex are identified as those eliciting a decrease in the TR-FRET ratio relative to DMSO control wells.
(§4) Note—The following protocol describes a procedure for monitoring disruption of K-Ras G12C (GMP-PNP) binding to BRAF^RBD by a compound of the invention. This protocol may also be executed substituting other Ras proteins or nucleotides.
(§5) The purpose of this biochemical assay was to measure the ability of test compounds to facilitate ternary complex formation between a nucleotide-loaded K-Ras isoform and Cyclophilin A; the resulting ternary complex disrupts binding to a BRAF^RBD construct, inhibiting K-Ras signaling through a RAF effector. Data is reported as IC50 values.
as §3, with “Compound was” for “Compound is”, “allophycocyanin was” for “allophycocyanin is”, “a K-Ras:RAF” for “a Ras:RAF”, “complex were” for “complex are”

[6] = target: NRAS G12C (Homo sapiens (Human), UniProt P01111+P62937, G12C); test: Ras-Raf (BRAF RBD) disruption / FRET / MOA assay, NRAS G12C; format: biochemical; settings: read-out: IC50* NRAS G12C FRET data
NRAS G12C, sequence (P01111 whole entry G12C): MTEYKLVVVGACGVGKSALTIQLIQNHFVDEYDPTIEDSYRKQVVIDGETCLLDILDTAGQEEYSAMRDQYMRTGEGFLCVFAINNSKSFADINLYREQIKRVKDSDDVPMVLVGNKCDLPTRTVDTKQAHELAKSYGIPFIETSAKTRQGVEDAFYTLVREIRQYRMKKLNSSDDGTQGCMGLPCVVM
NRAS G12C, sequence (P62937 whole entry): as the sequence (P62937 whole entry) above
Outline: as §1

[7] = target: K-Ras G13C (Homo sapiens (Human), UniProt P01116+P62937, G13C); test: Ras-Raf (BRAF RBD) disruption / FRET / MOA assay, KRAS G13C; format: biochemical; settings: KRAS G13C; Ras-Raf disruption/FRET/MOA assay; read-out: IC50* KRAS G13C FRET data
K-Ras G13C, sequence (P01116-2 other isoform, or with tags, fused parts or gaps G13C): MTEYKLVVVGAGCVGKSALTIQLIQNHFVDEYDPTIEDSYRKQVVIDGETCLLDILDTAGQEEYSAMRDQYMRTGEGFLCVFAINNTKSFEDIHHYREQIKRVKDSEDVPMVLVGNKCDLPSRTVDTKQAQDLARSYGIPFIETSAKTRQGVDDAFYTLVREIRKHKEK
K-Ras G13C, sequence (P62937 whole entry): as the sequence (P62937 whole entry) above
Outline: as §1

[8] = target: KRAS G13D (Homo sapiens (Human), UniProt P01116+P62937, G13D); test: Ras-Raf (BRAF RBD) disruption / FRET / MOA assay, KRAS G13D; format: biochemical; settings: read-out: IC50* KRAS G13D FRET data
KRAS G13D, sequence (P01116-2 other isoform, or with tags, fused parts or gaps G13D): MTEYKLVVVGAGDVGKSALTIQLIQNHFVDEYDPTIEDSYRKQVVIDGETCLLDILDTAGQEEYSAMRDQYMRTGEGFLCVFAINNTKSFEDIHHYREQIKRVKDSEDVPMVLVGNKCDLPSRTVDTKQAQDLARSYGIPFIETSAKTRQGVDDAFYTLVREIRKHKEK
KRAS G13D, sequence (P62937 whole entry): as the sequence (P62937 whole entry) above
Outline: as §1

[9] = target: NRAS WT (Homo sapiens (Human), UniProt P01111+P62937); test: Ras-Raf (BRAF RBD) disruption / FRET / MOA assay, NRAS WT; format: biochemical; settings: read-out: IC50* NRAS WT FRET data
NRAS WT, sequence (P01111 whole entry): as the sequence (P01111 whole entry G12C) above, with C12G counted along it
NRAS WT, sequence (P62937 whole entry): as the sequence (P62937 whole entry) above
Method: as §2, §3, §4, §5
as §3, with “Compound was” for “Compound is”, “allophycocyanin was” for “allophycocyanin is”, “a K-Ras:RAF” for “a Ras:RAF”, “complex were” for “complex are”

[10] = target: KRAS WT (Homo sapiens (Human), UniProt P01116+P62937); test: Ras-Raf (BRAF RBD) disruption / FRET / MOA assay, KRAS WT; format: biochemical; settings: read-out: IC50* KRAS WT FRET data
KRAS WT, sequence (P01116-2 other isoform, or with tags, fused parts or gaps): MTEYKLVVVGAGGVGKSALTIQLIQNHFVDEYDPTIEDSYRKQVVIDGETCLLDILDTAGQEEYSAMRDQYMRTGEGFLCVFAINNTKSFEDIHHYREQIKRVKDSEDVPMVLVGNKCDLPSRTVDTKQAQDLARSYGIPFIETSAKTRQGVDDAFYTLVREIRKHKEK
KRAS WT, sequence (P62937 whole entry): as the sequence (P62937 whole entry) above
Outline: as §1

[11] = target: KRAS G12V (Homo sapiens (Human), UniProt P01116+P62937, G12V); test: Ras-Raf (BRAF RBD) disruption / FRET / MOA assay, KRAS G12V; format: biochemical; settings: read-out: IC50* KRAS G12V FRET data
KRAS G12V, sequence (P01116-2 other isoform, or with tags, fused parts or gaps G12V): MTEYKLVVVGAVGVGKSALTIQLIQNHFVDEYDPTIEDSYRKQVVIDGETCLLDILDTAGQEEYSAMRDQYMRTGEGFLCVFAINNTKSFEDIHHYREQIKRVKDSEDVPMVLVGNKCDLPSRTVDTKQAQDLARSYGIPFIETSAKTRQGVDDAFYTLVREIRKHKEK
KRAS G12V, sequence (P62937 whole entry): as the sequence (P62937 whole entry) above
Outline: as §1

[12] = target: K-Ras G12C (Homo sapiens (Human), UniProt P01116+P62937, G12C); test: Ras-Raf (BRAF RBD) disruption / FRET / MOA assay, KRAS G12C; format: biochemical; settings: KRAS G12C; Ras-Raf disruption/FRET/MOA assay; read-out: IC50* KRAS G12C FRET data
K-Ras G12C, sequence (P01116-2 other isoform, or with tags, fused parts or gaps G12C): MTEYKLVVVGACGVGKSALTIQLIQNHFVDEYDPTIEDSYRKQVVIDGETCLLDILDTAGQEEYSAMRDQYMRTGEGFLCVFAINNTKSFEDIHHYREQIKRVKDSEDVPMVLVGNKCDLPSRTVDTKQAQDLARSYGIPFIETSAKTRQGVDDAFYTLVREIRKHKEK
K-Ras G12C, sequence (P62937 whole entry): as the sequence (P62937 whole entry) above
Outline: as §1

[13] = target: NRAS Q61R (Homo sapiens (Human), UniProt P01111+P62937, Q61R); test: Ras-Raf (BRAF RBD) disruption / FRET / MOA assay, NRAS Q61R; format: biochemical; settings: NRAS Q61R; Ras-Raf disruption/FRET/MOA assay; read-out: IC50* NRAS Q61R FRET data
NRAS Q61R, sequence (P01111 whole entry Q61R): as the sequence (P01111 whole entry G12C) above, with C12G, Q61R counted along it
NRAS Q61R, sequence (P62937 whole entry): as the sequence (P62937 whole entry) above
Method: as §2, §3, §4, §5
as §3, with “Compound was” for “Compound is”, “allophycocyanin was” for “allophycocyanin is”, “a K-Ras:RAF” for “a Ras:RAF”, “complex were” for “complex are”

[14] = target: NRAS Q61K (Homo sapiens (Human), UniProt P01111+P62937, Q61K); test: Ras-Raf (BRAF RBD) disruption / FRET / MOA assay, NRAS Q61K; format: biochemical; settings: NRAS Q61K; Ras-Raf disruption/FRET/MOA assay; read-out: IC50* NRAS Q61K FRET data
NRAS Q61K, sequence (P01111 whole entry Q61K): as the sequence (P01111 whole entry G12C) above, with C12G, Q61K counted along it
NRAS Q61K, sequence (P62937 whole entry): as the sequence (P62937 whole entry) above
Method: as §2, §3, §4, §5
as §3, with “Compound was” for “Compound is”, “allophycocyanin was” for “allophycocyanin is”, “a K-Ras:RAF” for “a Ras:RAF”, “complex were” for “complex are”

KRAS G12S, sequence (P01116-2 other isoform, or with tags, fused parts or gaps G12S): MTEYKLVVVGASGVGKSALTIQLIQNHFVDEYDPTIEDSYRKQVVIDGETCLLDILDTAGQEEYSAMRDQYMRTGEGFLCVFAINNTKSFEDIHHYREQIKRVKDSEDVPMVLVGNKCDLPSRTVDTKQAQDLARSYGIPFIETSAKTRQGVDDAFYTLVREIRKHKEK
KRAS G12S, sequence (P62937 whole entry): as the sequence (P62937 whole entry) above

Row | SMILES | IC50 [1] | IC50 [2] | IC50 [3] | EC50 [4] | IC50 [5] | IC50 [6] | IC50 [7] | IC50 [8] | IC50 [9] | IC50 [10] | IC50 [11] | IC50 [12] | IC50 [13] | IC50 [14]
1 | C=CC(=O)N1CC[C@H](C(=O)N(C)[C@H](C(=O)N[C@H]2Cc3cc(CF)cc(c3)-c3ccc4c(c3)c(c(-c3cccnc3[C@H](C)OC)n4CC)CC(C)(C)COC(=O)[C@@H]3CCCN(N3)C2=O)C(C)C)C1 (atropisomer, axis not shown) [Example A504] | 1000 to 10000 nM | < 10 nM | 1000 to 10000 nM | < 5000 nM | 100 to 1000 nM | – | – | – | – | – | – | – | – | –
2 | C=CC(=O)N1CC[C@H](C(=O)N(C)[C@H](C(=O)N[C@H]2Cc3cc(CF)cc(c3)-c3ccc4c(c3)c(c(-c3cccnc3[C@H](C)OC)n4CC)CC(C)(C)COC(=O)[C@@H]3CCCN(N3)C2=O)C(C)C)C1 (atropisomer, axis not shown) [Example A505] | 1000 to 10000 nM | < 10 nM | 1000 to 10000 nM | < 5000 nM | 100 to 1000 nM | – | – | – | – | – | – | – | – | –
3 | CCn1c(-c2cccnc2[C@H](C)OC)c2c3cc(ccc31)N1CCC[C@@H](C[C@H](NC(=O)[C@H](C(C)C)N(C)C(=O)C3(F)CCN(C(=O)C#CC(C)(C)N(C)C)CC3)C(=O)N3CCC[C@H](N3)C(=O)OCC(C)(C)C2)C1 (atropisomer, axis not shown) [Example A616] | 1000 to 10000 nM | < 10 nM | > 10000 nM | < 5000 nM | 1000 to 10000 nM | < 10 nM | 1000 to 10000 nM | 1000 to 10000 nM | 1000 to 10000 nM | 1000 to 10000 nM | 1000 to 10000 nM | – | – | –
4 | C=CC(=O)N1CC[C@H](C(=O)N(C)[C@H](C(=O)N[C@H]2Cc3cc(O)cc(c3)-c3ccc4c(c3)c(c(-c3ccc(N5CCN(C)CC5)nc3)n4CC)CC(C)(C)COC(=O)[C@@H]3CCCN(N3)C2=O)C(C)C)C1 [Example A089] | 1000 to 10000 nM | – | > 10000 nM | – | 100 to 1000 nM | – | 1000 to 10000 nM | – | 1000 to 10000 nM | 1000 to 10000 nM | 1000 to 10000 nM | 100 to 1000 nM | 1000 to 10000 nM | 1000 to 10000 nM
5 | C=CC(=O)N1CC[C@H](C(=O)N(C)[C@H](C(=O)N[C@H]2Cc3cc(O)cc(c3)-c3ccc4c(c3)c(c(-c3cnn5c3[C@@H](OC)CCC5)n4CC)CC(C)(C)COC(=O)[C@@H]3CCCN(N3)C2=O)C(C)C)C1 [Example A333] | 10 to 100 nM | < 10 nM | 100 to 1000 nM | < 5000 nM | 10 to 100 nM | – | – | – | – | – | – | – | – | –
6 | C=CC(=O)N1CCN(C(=O)N(C)[C@H](C(=O)N[C@H]2Cc3cc(O)cc(c3)-c3ccc4c(c3)c(c(-c3cccnc3[C@H](C)OC)n4CC)CC(C)(C)COC(=O)[C@@H]3CCCN(N3)C2=O)C(C)C)CC1 [Example A338] | 10 to 100 nM | 10 to 100 nM | 100 to 1000 nM | < 5000 nM | 10 to 100 nM | – | – | – | – | – | – | – | – | –
7 | C=CC(=O)N1CCOC2(CCN(C(=O)N(C)[C@H](C(=O)N[C@H]3CN4CCC=C(C4)c4ccc5c(c4)c(c(-c4cccnc4[C@H](C)OC)n5CC)CC(C)(C)COC(=O)[C@@H]4CCCN(N4)C3=O)C(C)C)CC2)C1 [Example A563] | 1000 to 10000 nM | 100 to 1000 nM | > 10000 nM | < 5000 nM | 1000 to 10000 nM | – | – | – | – | – | – | – | – | –
